Reference: publication PMC11855827, “High-Throughput Screening of Five Compound Libraries for Anthelmintic Activity and Toxicity Leads to the Discovery of Two Flavonoid Compounds” (International Journal of Molecular Sciences, 2025)
Where “and” joins values, the source holds several entries; their conditions need not be identical. Equal values may be shown once. Read-outs that look alike come from different tables or passages of the source.

Tests used:
C. elegans [1] = experiment: microbe, parasite or virus in culture; settings: Caenorhabditis elegans
C. elegans [2] = tested on: C. elegans
[3] = Table S2, C. elegans SS assay, 110 μM, 0 h, averages of 4 data points
[4] = Table S2, C. elegans SS assay, 110 μM, 24 h, averages of 4 data points

Row | Compound | Percentage of motility inhibition 0 h (C. elegans [2]; [3]) [%] | Percentage of motility inhibition 24 h (C. elegans [2]; [4]) [%] | other results
1 | C=C1C=CC(C(C)C)CC1 (stereo not drawn) [β-Phellandrene] |  |  | inhibition at 110 µM (C. elegans [1]; 0 h, read-out: Percentage of motility inhibition 0 h, Table S2, C. elegans SS assay, 110 μM, 0 h, averages of 4 data points): 17%; inhibition at 110 µM (C. elegans [1]; 24 h, read-out: Percentage of motility inhibition 24 h, Table S2, C. elegans SS assay, 110 μM, 24 h, averages of 4 data points): 20%
2 | C[C@H]1CC[C@H]2[C@H](C)[C@H]3CC[C@@H]4[C@@H](C[C@H]5[C@H]4CC(=O)[C@H]4C[C@@H](O)CC[C@@]45C)[C@@H]3CN2C1 [Ebeiedinone] | 0 | 4 | 
3 | CC1(C)CCC[C@]2(C)[C@@H]1CC[C@@]13C[C@H](CC[C@H]12)[C@@](O)(CO)C3 [Kauran-16,17-diol] | 0 | 22 | 
4 | CCn1cc(C(=O)O)c(=O)c2cc(F)c(N3CCNCC3)nc21 [Enoxacin (hydrate)] | 17 | 0 | 
5 | COc1cc2c(cc1OC)-c1c(C)c3ccc(OC)c(OC)c3c[n+]1CC2.O=[N+]([O-])[O-] [Dehydrocorydaline (nitrate)] | 5 | 0 | 
6 | Cl.NC12CC3CC(CC(C3)C1)C2 [Amantadine (hydrochloride)] | 42 | 2 | 
7 | C=C(CCC=C(C)C)[C@@H]1CC=C(C)CC1 [β-Bisabolene] | 8 | 57 | 
8 | C[C@H](CO[C@@H]1O[C@H](CO)[C@@H](O)[C@H](O)[C@H]1O)[C@H]1CC[C@@]2(CC[C@]3(C)[C@H](CC[C@@H]4[C@@]5(C)CC[C@H](O[C@@H]6O[C@H](CO)[C@@H](O)[C@H](O)[C@H]6O[C@@H]6O[C@H](CO)[C@@H](O)[C@H](O)[C@H]6O)[C@@](C)(CO)[C@@H]5CC[C@]43C)[C@H]2O)CO1 [Hosenkoside B] | 7 | 10 | 
9 | C=C(CCC=C(C)C)[C@H]1CC[C@]2(C)[C@@H]1[C@H](O)C[C@@H]1[C@@]3(C)CC[C@H](O[C@@H]4O[C@H](CO)[C@@H](O)[C@H](O)[C@H]4O[C@@H]4O[C@H](CO)[C@@H](O)[C@H](O)[C@H]4O)C(C)(C)[C@@H]3CC[C@]12C [Ginsenoside Rk1] | 4 | 0 | 
10 | C[C@H]1CC[C@@H]2N(C1)C[C@H]1[C@@H]3C[C@H]4[C@@H](CC(=O)[C@H]5C[C@@H](O[C@@H]6O[C@H](CO)[C@@H](O)[C@H](O)[C@H]6O)CC[C@@]54C)[C@@H]3CC[C@H]1[C@]2(C)O [Imperialine 3‐β‐D‐glucoside] | 10 | 10 | 
11 | COC(=O)[C@@]1(C)CC[C@]2(C(=O)O)CC[C@]3(C)C(=CC[C@@H]4[C@@]5(C)C[C@H](O)[C@H](O[C@@H]6OC[C@@H](O[C@@H]7O[C@H](CO)[C@@H](O)[C@H](O)[C@H]7O)[C@H](O)[C@H]6O)[C@@](C)(CO)[C@@H]5CC[C@]43C)[C@@H]2C1 [Esculentoside A] | 17 | 3 | 
12 | O=c1cc(-c2ccc(O[C@@H]3O[C@H](CO)[C@@H](O)[C@H](O)[C@H]3O)cc2)oc2cc(O)c([C@@H]3O[C@H](CO)[C@@H](O)[C@H](O)[C@H]3O[C@@H]3OC[C@H](O)[C@H](O)[C@H]3O)c(O)c12 [Vaccarin] | 0 | 6 | 
13 | C[C@@H](CO)[C@@H]1CC[C@@]2(CC[C@]3(C)[C@H](CC[C@@H]4[C@@]5(C)CC[C@H](O[C@@H]6O[C@H](CO)[C@@H](O)[C@H](O)[C@H]6O[C@@H]6O[C@H](CO)[C@@H](O)[C@H](O)[C@H]6O)[C@@](C)(CO[C@@H]6O[C@H](CO)[C@@H](O)[C@H](O)[C@H]6O)[C@@H]5CC[C@]43C)[C@H]2O)CO1 [Hosenkoside A] | 15 | 19 | 
14 | Cycleanine | 4 | 4 | 
15 | CC1(C)[C@@H](O[C@@H]2O[C@H](C(=O)O)[C@@H](O)[C@H](O)[C@H]2O)CC[C@]2(C)[C@H]3C(=O)C=C4[C@@H]5C[C@@](C)(C(=O)O)CC[C@]5(C)CC[C@@]4(C)[C@]3(C)CC[C@@H]12 [Glycyrrhetic acid 3-O-β-D-glucuronide] | 2 | 22 | 
16 | Capreomycin (sulfate) | 12 | 0 | 
17 | CCn1cc(C(=O)O)c(=O)c2cc(F)c(N3CCN(C)CC3)cc21.CS(=O)(=O)O [Pefloxacin (mesylate)] | 9 | 8 | 
18 | Dryocrassin ABBA | 12 | 18 | 
19 | CN[C@@H]1[C@H](O[C@H]2[C@H](O[C@H]3[C@H](O)[C@@H](O)[C@H](N=C(N)N)[C@@H](O)[C@@H]3N=C(N)N)O[C@@H](C)[C@]2(O)C=O)O[C@@H](CO)[C@H](O)[C@H]1O.CN[C@@H]1[C@H](O[C@H]2[C@H](O[C@H]3[C@H](O)[C@@H](O)[C@H](N=C(N)N)[C@@H](O)[C@@H]3N=C(N)N)O[C@@H](C)[C@]2(O)C=O)O[C@@H](CO)[C@H](O)[C@H]1O.O=S(=O)(O)O.O=S(=O)(O)O.O=S(=O)(O)O [Streptomycin (sulfate)] | 31 | 26 | 

Row | Compound | Percentage of motility inhibition 0 h (C. elegans [2]; [3]) [%] | Percentage of motility inhibition 24 h (C. elegans [2]; [4]) [%] | other results
20 | CN[C@@H]1[C@@H](O)[C@@H](O[C@@H]2[C@@H](O)[C@H](O[C@H]3OC(CN)=CC[C@H]3N)[C@@H](N)C[C@H]2N)OC[C@]1(C)O.CN[C@@H]1[C@@H](O)[C@@H](O[C@@H]2[C@@H](O)[C@H](O[C@H]3OC(CN)=CC[C@H]3N)[C@@H](N)C[C@H]2N)OC[C@]1(C)O.O=S(=O)(O)O.O=S(=O)(O)O.O=S(=O)(O)O.O=S(=O)(O)O.O=S(=O)(O)O [Sisomicin (sulfate)] | 2 | 0 | 
21 | O=c1c(-c2ccc(O)c(O)c2)coc2c([C@@H]3O[C@H](CO)[C@@H](O)[C@H](O)[C@H]3O)c(O)ccc12 [3'‐Hydroxypuerarin] | 1 | 0 | 
22 | C/C(=C\CNc1ncnc2c1ncn2[C@@H]1O[C@H](CO)[C@@H](O)[C@H]1O)CO [trans‐Zeatinriboside] | 9 | 0 | 
23 | CO[C@@]1(NC(=O)CSCC#N)C(=O)N2C(C(=O)[O-])=C(CSc3nnnn3C)CS[C@@H]21.[Na+] [Cefmetazole (sodium)] | 7 | 25 | 
24 | CC(=O)Oc1c(C)c(C)c2c(c1C)CCC(C)(CCC[C@H](C)CCC[C@H](C)CCCC(C)C)O2 (stereo partly drawn) [D-α-Tocopherol acetate] | 7 | 22 | 
25 | CN1[C@H]2C[C@H](OC(=O)[C@H](CO)c3ccccc3)C[C@@H]1[C@@H](O)C2 [Anisodamine] | 10 | 5 | 
26 | CC(C)=CCC[C@@](C)(O)[C@H]1CC[C@]2(C)[C@@H]1[C@H](O)C[C@@H]1[C@@]3(C)CC[C@H](O[C@@H]4O[C@H](CO)[C@@H](O)[C@H](O)[C@H]4O)C(C)(C)[C@@H]3CC[C@]12C [20(R)-Ginsenoside Rh2] | 11 | 6 | 
27 | Oxypaeoniflorin | 0 | 0 | 
28 | CC(=O)O[C@H]1[C@H](O[C@H]2CC[C@]34C[C@]35CC[C@]3(C)[C@@H]([C@@]6(C)CC[C@@H](C(C)(C)O)O6)[C@@H](O)C[C@@]3(C)[C@@H]5C[C@H](O[C@@H]3O[C@H](CO)[C@@H](O)[C@H](O)[C@H]3O)[C@H]4C2(C)C)OC[C@@H](OC(C)=O)[C@@H]1O [Isoastragaloside I] | 12 | 59 | 
29 | CC(C)=C1C/C=C(\C)CC/C=C(\C)CC1=O [Germacrone] | 12 | 9 | 
30 | Clc1ccc(C(Cn2ccnc2)OCc2c(Cl)cccc2Cl)c(Cl)c1.O=[N+]([O-])O (stereo not shown) [Isoconazole (nitrate)] | 17 | 4 | 
31 | CC(C)(O)[C@H]1CC[C@@](C)([C@H]2CC[C@]3(C)[C@@H]2[C@H](O)C[C@@H]2[C@@]4(C)CC[C@H](O)C(C)(C)[C@@H]4[C@@H](O[C@@H]4O[C@H](CO)[C@@H](O)[C@H](O)[C@H]4O)C[C@]23C)O1 [Pseudoginsenoside RT5] | 0 | 16 | 
32 | COc1c(-c2ccccc2)oc2cc(O)cc(O)c2c1=O [3‐O‐Methylgalangin] | 0 | 4 | 
33 | CN1[C@@H]2CC[C@H]1C[C@@H](OC(=O)C(CO)c1ccccc1)C2 (stereo partly shown) [Atropine] |  |  | Percentage of motility inhibition 0 h (C. elegans [2]; 110 µM): 3% and 0%; Percentage of motility inhibition 24 h (C. elegans [2]; 110 µM): 3% and 8%
34 | CC(C)(O)[C@@H]1CC[C@](C)([C@H]2[C@@H](O)C[C@@]3(C)[C@@H]4C[C@H](O[C@@H]5O[C@H](CO)[C@@H](O)[C@H](O)[C@H]5O)[C@H]5C(C)(C)[C@@H](O[C@@H]6OC[C@@H](O)[C@H](O)[C@H]6O[C@@H]6O[C@H](CO)[C@@H](O)[C@H](O)[C@H]6O)CC[C@@]56C[C@@]46CC[C@]23C)O1 [Astragaloside VI] | 3 | 0 | 
35 | COC(=O)[C@]12CCC(C)(C)C[C@H]1C1=CC[C@@H]3[C@@]4(C)CCC(=O)C(C)(C)[C@@H]4CC[C@@]3(C)[C@]1(C)CC2 [Methyl oleanonate] | 4 | 1 | 
36 | Cc1cc(-n2c(=O)[nH]c(=O)n(C)c2=O)ccc1Oc1ccc(S(=O)(=O)C(F)(F)F)cc1 [Toltrazuril (sulfone)] | 38 | 12 | 
37 | CN1Cc2c(ccc3c2OCO3)[C@@]2(C)[C@@H](O)Cc3cc4c(cc3[C@@H]12)OCO4 [Corynoline] | 13 | 0 | 
38 | CC(C)(C)OC(=O)N1CCC[C@H]1c1nc(C(=O)O)cs1 [Antibiotic‐5d] | 0 | 0 | 
